# Laboratory results from PubChem BioAssay AID1259408 (Genetic Toxicology Data Bank (GENE-TOX), 2018).
# Active and inactive are the calls of the source. The rule behind the calls is not given here.
# System: GENE-TOX genotoxicity assays, various organisms and cells
# Assay: GENE-TOX mutagenicity studies
# Conditions: for call: Assay Type: In vivo carcinogenicity studies
# [1] = Species/Cell Type: Chinese hamster lung (V79) cells, Assay Type: Forward gene mutation at the HPRT or ouabain locus, Assay Code: V79+, Evaluation Type: Evaluation A (Pre-1980)
# [2] = Species/Cell Type: Human lymphocytes, Assay Type: Sister-chromatid exchange (SCE) in vitro, Assay Code: SCL+D, Dose Response: With dose response, Evaluation Type: Evaluation B (Post-1980)
# [3] = Species/Cell Type: Human, Assay Type: Sister-chromatid exchange (SCE) in vitro, Assay Code: SC1+D, Dose Response: With dose response, Evaluation Type: Evaluation B (Post-1980)
# [4] = Species/Cell Type: Neurospora crassa, Assay Type: Reverse gene mutation, Assay Code: NER+, Evaluation Type: Evaluation A (Pre-1980)
# [5] = Species/Cell Type: Nonhuman, Assay Code: CCG+, Evaluation Type: Evaluation A (Pre-1980)
# [6] = Species/Cell Type: Nonhuman, Assay Type: Sister-chromatid exchange (SCE) in vitro, Assay Code: SC2+, Evaluation Type: Evaluation A (Pre-1980)
# [7] = Species/Cell Type: Nonhuman, Assay Type: Sister-chromatid exchange (SCE) in vivo, Assay Code: SC3+D, Dose Response: With dose response, Evaluation Type: Evaluation B (Post-1980)
# [8] = Species/Cell Type: Salmonella typhimurium (one or more of the five standard strains: TA98, TA100, TA1535, TA1537, and TA1538), Assay Type: Histidine reverse gene mutation, Ames assay, Assay Code: SAL+, Evaluation Type: Evaluation A (Pre-1980)
# [9] = Species/Cell Type: Salmonella typhimurium (one or more of the five standard strains: TA98, TA100, TA1535, TA1537, and TA1538), Assay Type: Histidine reverse gene mutation, Ames assay, Assay Code: SAL+*, Activation: With metabolic activation, Evaluation Type: Evaluation A (Pre-1980)
smiles,measurement,setting,value
c1cncc([C@@H]2CCCCN2)c1,mutagenic call,"Species/Cell Type: Nonhuman, Assay Type: Sister-chromatid exchange (SCE) in vitro, Assay Code: SC2T, Evaluation Type: Evaluation B (Post-1980)",no conclusion
CN(N=O)C(N)=O,mutagenic call,"Species/Cell Type: Allium cepa, Assay Type: Chromosome aberrations, Assay Code: ALC+D, Dose Response: With dose response, Evaluation Type: Evaluation A (Pre-1980)",active; positive
same,mutagenic call,"Species/Cell Type: Arabidopsis species, Assay Type: Gene mutation, Assay Code: ARM+D, Dose Response: With dose response, Evaluation Type: Evaluation A (Pre-1980)",active; positive
same,mutagenic call,[1],active; positive
same,mutagenic call,"Species/Cell Type: Chinese hamster ovary (CHO) cells, Assay Type: Forward gene mutation at the HPRT locus, Assay Code: CHO+D, Dose Response: With dose response, Evaluation Type: Evaluation A (Pre-1980)",active; positive
same,mutagenic call,"Species/Cell Type: Drosophila melanogaster, Assay Type: Aneuploidy, partial sex chromosome loss, chromosome aberrations, Assay Code: DAP+M, Evaluation Type: Evaluation A (Pre-1980)",active; positive
same,mutagenic call,"Species/Cell Type: Drosophila melanogaster, Assay Type: Aneuploidy, whole sex chromosome loss, chromosome aberrations, Assay Code: DAC+M, Evaluation Type: Evaluation A (Pre-1980)",active; positive
same,mutagenic call,"Species/Cell Type: Drosophila melanogaster, Assay Type: Sex-linked recessive lethal gene mutation, Assay Code: SRL+, Evaluation Type: Evaluation A (Pre-1980)",active; positive
same,mutagenic call,"Species/Cell Type: Drosophila melanogaster, Sex: Male, Assay Type: Heritable translocation test, chromosome aberrations, Assay Code: DHT+, Evaluation Type: Evaluation A (Pre-1980)",active; positive
same,mutagenic call,"Species/Cell Type: Escherichia coli WP2, Assay Type: Tryptophan reverse gene mutation, Assay Code: WP2+, Evaluation Type: Evaluation A (Pre-1980)",active; positive
same,mutagenic call,"Species/Cell Type: Escherichia coli WP2 UVRA, Assay Type: Tryptophan reverse gene mutation, Assay Code: WPU+, Evaluation Type: Evaluation A (Pre-1980)",active; positive
same,mutagenic call,"Species/Cell Type: Escherichia coli polA (W3119 vs P3478), Assay Type: Rec-assay, DNA effects (bacterial DNA repair), Assay Code: RE1+, Evaluation Type: Evaluation A (Pre-1980)",active; positive
same,mutagenic call,"Species/Cell Type: Glycine max (soybean), Assay Type: Gene mutation, Assay Code: GLM+, Evaluation Type: Evaluation A (Pre-1980)",active; positive
same,mutagenic call,"Species/Cell Type: Hordeum vulgare (barley), Assay Type: Chromosome aberrations, Assay Code: HOC+, Evaluation Type: Evaluation A (Pre-1980)",active; positive
same,mutagenic call,"Species/Cell Type: Hordeum vulgare (barley), Assay Type: Gene mutation, Assay Code: HOM+, Evaluation Type: Evaluation A (Pre-1980)",active; positive
same,mutagenic call,"Species/Cell Type: Human cell culture, Assay Type: Chromosome aberrations in vitro, Assay Code: CYZ+, Evaluation Type: Evaluation A (Pre-1980)",active; positive
same,mutagenic call,"Species/Cell Type: Human diploid fibroblasts, Assay Type: Unscheduled DNA synthesis (UDS) in vitro, DNA effects, Assay Code: UDH+, Evaluation Type: Evaluation A (Pre-1980)",active; positive
same,mutagenic call,[2],active; positive
same,mutagenic call,[3],active; positive
same,mutagenic call,"Species/Cell Type: Mammalian polychromatic erythrocytes, Assay Type: Micronucleus test, chromosome aberrations, Assay Code: MNTT, Evaluation Type: Evaluation A (Pre-1980)",no conclusion
same,mutagenic call,"Species/Cell Type: Mouse germ cells, Sex: Male, Assay Type: Unscheduled DNA synthesis (UDS) in vivo, DNA effects, Assay Code: UDT+, Evaluation Type: Evaluation A (Pre-1980)",active; positive
same,mutagenic call,"Species/Cell Type: Mouse, Sex: Male, Assay Type: Sperm morphology, Assay Code: SPI+, Evaluation Type: Evaluation A (Pre-1980)",active; positive
same,mutagenic call,"Species/Cell Type: Neurospora crassa, Assay Type: Forward gene mutation, Assay Code: NEF+, Evaluation Type: Evaluation A (Pre-1980)",active; positive
same,mutagenic call,[4],active; positive
same,call,[5],active; positive
same,mutagenic call,[6],active; positive
same,mutagenic call,"Species/Cell Type: Nonhuman, Assay Type: Sister-chromatid exchange (SCE) in vitro, Assay Code: SC2+D, Dose Response: With dose response, Evaluation Type: Evaluation B (Post-1980)",active; positive
same,mutagenic call,[7],active; positive
same,mutagenic call,"Species/Cell Type: Rat primary hepatocytes, Assay Type: Unscheduled DNA synthesis (UDS) in vitro, DNA effects, Assay Code: UDP+, Evaluation Type: Evaluation A (Pre-1980)",active; positive
same,mutagenic call,"Species/Cell Type: Rodents, Sex: Male, Assay Type: Dominant lethal test, Assay Code: DLT-, Evaluation Type: Evaluation A (Pre-1980)",inactive; negative
same,mutagenic call,"Species/Cell Type: Saccharomyces cerevisiae, Assay Type: Aneuploidy, chromosome aberrations, Assay Code: YEN+, Evaluation Type: Evaluation A (Pre-1980)",active; positive
same,mutagenic call,"Species/Cell Type: Saccharomyces cerevisiae, Assay Type: Mitotic recombination or gene conversion, Assay Code: YEC+, Evaluation Type: Evaluation A (Pre-1980)",active; positive
same,mutagenic call,"Species/Cell Type: Saccharomyces cerevisiae, Assay Type: Reverse gene mutation, Assay Code: YER+, Evaluation Type: Evaluation A (Pre-1980)",active; positive
same,mutagenic call,[8],active; positive
same,mutagenic call,"Species/Cell Type: Salmonella typhimurium, Escherichia coli, Serratia marcesens, Assay Type: Forward and reverse gene mutation, host-mediated assay, Assay Code: HMN+, Evaluation Type: Evaluation A (Pre-1980)",active; positive
same,mutagenic call,"Species/Cell Type: Vicia faba, Assay Type: Chromosome aberrations, Assay Code: VIC+, Evaluation Type: Evaluation A (Pre-1980)",active; positive
same,mutagenic call,"Species/Cell Type: Zea mays (corn), Assay Type: Gene mutation, Assay Code: ZEM+D, Dose Response: With dose response, Evaluation Type: Evaluation A (Pre-1980)",active; positive
COc1ccc2c(ccc3c4c(ccc32)C(C)=CC4)c1,mutagenic call,[9],active; positive
COc1cc([N+](=O)[O-])ccc1N=Nc1ccccc1,mutagenic call,"Species/Cell Type: Salmonella typhimurium (one or more of the five standard strains: TA98, TA100, TA1535, TA1537, and TA1538), Assay Type: Histidine reverse gene mutation, Ames assay, Assay Code: SALT, Evaluation Type: Evaluation A (Pre-1980)",no conclusion
Cc1c2ccccc2cc2c3c(ccc12)C=C[C@@H](O)[C@@H]3O,mutagenic call,"Species/Cell Type: Mouse prostate cells, Assay Type: Cell transformation, Assay Code: CTM+, Evaluation Type: Evaluation A (Pre-1980)",active; positive
same,call,"Species/Cell Type: Nonhuman, Assay Code: CCGT, Evaluation Type: Evaluation A (Pre-1980)",no conclusion
same,mutagenic call,[6],active; positive
O=[N+]([O-])c1ccc(/C=C/c2nccn2Cc2ccccc2)o1,mutagenic call,[4],active; positive
O=c1cc(O)c2ccccc2[nH]1,mutagenic call,[9],active; positive
O=C(Cn1ccnc1[N+](=O)[O-])NCc1ccccc1,mutagenic call,"Species/Cell Type: Mammalian polychromatic erythrocytes, Assay Type: Micronucleus test, chromosome aberrations, Assay Code: MNT+, Evaluation Type: Evaluation B (Post-1980)",active; positive
CN(C)c1ccc(/C=C/c2ccccc2)cc1,mutagenic call,"Species/Cell Type: Drosophila melanogaster, Assay Type: Sex-linked recessive lethal gene mutation, Assay Code: SRLT, Evaluation Type: Evaluation A (Pre-1980)",no conclusion
CCCCNC(N)=O,mutagenic call,"Species/Cell Type: Nonhuman, Assay Type: Chromosome aberrations in vitro, Assay Code: CY&-, Evaluation Type: Evaluation A (Pre-1980)",inactive; negative
same,mutagenic call,[6],active; positive
Cc1ccc(Nc2ccc3c4c(cccc24)C(=O)c2ccccc2-3)cc1,mutagenic call,[8],active; positive
Cc1ccc2cc3c(c4c2c1CC4)[C@@H](O)[C@@H](O)c1ccccc1-3,mutagenic call,[1],active; positive
same,mutagenic call,"Species/Cell Type: Mouse prostate cells, Assay Type: Cell transformation, Assay Code: CTMT, Evaluation Type: Evaluation A (Pre-1980)",no conclusion
COc1cccc2c1C(=O)c1c(O)c3c(c(O)c1C2=O)C[C@@](O)(C(C)=O)C[C@@H]3O[C@H]1C[C@H](N)[C@H](O)[C@H](C)O1,mutagenic call,[1],active; positive
same,mutagenic call,"Species/Cell Type: Chinese hamster ovary (CHO) cells, Assay Type: Forward gene mutation at the HPRT locus, Assay Code: CHO+, Evaluation Type: Evaluation B (Post-1980)",active; positive
same,mutagenic call,"Species/Cell Type: Glycine max (soybean), Assay Type: Gene mutation, Assay Code: GLMT, Evaluation Type: Evaluation A (Pre-1980)",no conclusion
same,mutagenic call,"Species/Cell Type: Human cell culture, Assay Type: Chromosome aberrations in vitro, Assay Code: CYZ+D, Dose Response: With dose response, Evaluation Type: Evaluation A (Pre-1980)",active; positive
same,mutagenic call,"Species/Cell Type: Human lymphocytes or leukocytes, Assay Type: Chromosome aberrations in vitro, Assay Code: CY7+, Evaluation Type: Evaluation A (Pre-1980)",active; positive
same,mutagenic call,[2],active; positive
same,mutagenic call,[3],active; positive
same,mutagenic call,"Species/Cell Type: Nonhuman bone marrow, Assay Type: Chromosome aberrations, in vivo, Assay Code: CY#+, Evaluation Type: Evaluation A (Pre-1980)",active; positive
same,mutagenic call,"Species/Cell Type: Nonhuman lymphocytes or leukocytes, Assay Type: Chromosome aberrations in vivo, Assay Code: CY%+, Evaluation Type: Evaluation A (Pre-1980)",active; positive
same,call,[5],active; positive
same,mutagenic call,"Species/Cell Type: Nonhuman, Assay Type: Sister-chromatid exchange (SCE) in vitro, Assay Code: SC2+, Evaluation Type: Evaluation B (Post-1980)",active; positive
same,mutagenic call,[7],active; positive
same,mutagenic call,[8],active; positive
same,mutagenic call,"Species/Cell Type: Vicia faba, Assay Type: Chromosome aberrations, Assay Code: VIC+D, Dose Response: With dose response, Evaluation Type: Evaluation A (Pre-1980)",active; positive
CCCCSC(=Nc1cccnc1)SCc1ccc(C(C)(C)C)cc1,mutagenic call,"Species/Cell Type: Salmonella typhimurium, Assay Type: Forward and reverse gene mutation, host-mediated assay, Assay Code: HMA-, Evaluation Type: Evaluation A (Pre-1980)",inactive; negative
[O]=[Zr],mutagenic call,"Species/Cell Type: Nonhuman, Assay Type: Sister-chromatid exchange (SCE) in vitro, Assay Code: SC2-, Evaluation Type: Evaluation B (Post-1980)",inactive; negative
